Entries after “also recorded” stand apart in the source; their conditions may differ. Like-named read-outs stand apart in the source and are kept apart here.

One data set has as its system ARPE cells. Description: Competitive quenching by hypericin versus DTHe in ARPE cells (Hemacolor viability). The following applies: for cell viability: 1.73 J/cm^2, Hemacolor after 24 hrs (FIG. 7A). As for the experimental part: The cells were treated with the added dianthraquinone compounds for 3 hrs. and with added verteporfin for the last two hrs. The cells were then exposed to 1.73 J/cm^2 of light irradiation at >650 nm and cell viability monitored after 24 hrs. in culture.
(§1) For the Hemacolor assay the cells were fixed with methanol, stained with Hemacolor reagents (Merck, Darmstadt, Germany), the dye eluted and quantified in an ELISA reader at 650 nm. PDT efficacy was expressed as percentage of viable cells in treated wells relative to untreated controls, calculated as (OD650, treated/OD650, untreated)×100.
ARPE or EH endothelial hybridoma cells were seeded at 5×10^4 cells/well in 96 well flat bottom microplates. The cells were allowed to adhere overnight, after which time DTHe or hypericin were added to ARPE cells (FIG. 7A) or to endothelial hybridoma cells (FIG. 7B) at concentrations of 10 or 20 μg/ml and the cells incubated at 37° C. in complete darkness. After one hour incubation with hypericin, verteporfin at concentrations of 0.1, 0.25 and 0.5 μg/ml was added to the cultures, which were then incubated at 37° C. for two additional hours. The supernatants were removed, the cells washed with PBS and the cultures exposed to light irradiation at a dose of 1.73 J/cm^2 at 689 nm. The cultures were then incubated at 37° C. for an additional 24 hrs and cell viability was then determined via the hemacolor assay.

The conditions of data set [1]: cited from earlier work.
Data set [2] is described as follows: Hypericin distribution among the layers of the retina after i.v. administration. As for the experimental part:
Rats were sacrificed at 15 min, 2 hrs, 6 hrs and 8 hrs after i.v. administration of hypericin, 2 mg/kg. The eyes were enucleated and frozen initially at −80° C. and subsequently in liquid nitrogen and several cryostat sections (5-μm width) sliced from each sample. To prevent hypericin extraction from the retinal tissues during staining the histological tissue distribution of hypericin among the different layers of the retina was initially examined under an Olympus phase contrast and fluorescence microscope, and the data photographed with a computer-linked digital camera (Multipixel Spectral Imaging System, Applied Spectral Imaging Inc., Israel. Hypericin was excited at 477 nm and its fluorescence recorded by documenting emission intensity at 602 nm. The photographed locations were marked and the sections then stained with Hematoxylin-eosin (H&E) for confirmation of retinal layer identity and compared to the corresponding fluorescence and light microscopy images.
Hypericin at a dose of 2 mg/kg was administered to the tail vein. At 15 minutes, 2, 4, 6 and 8 hrs the rats were anesthesized, the eyes enucleated and frozen sections prepared. The sections were then analyzed by Multipixel Spectral Imaging.

The next data set deals with ARPE-19 cells. In words: Protection of ARPE cells from verteporfin-induced phototoxicity (MTT viability). The following applies: for viability at 20 µM: Homo sapiens, ARPE-19, light or radiation study. As for the experimental part:
ARPE or EH cells were plated in 96 well flat bottom microplates 2×10^4 cells/well. The cells were allowed to attach to the plate surface and hypericin was added to the cultures in complete darkness (ambient light kept below <0.03 mW/cm^2 to prevent hypericin-mediated phototoxicity) for time intervals ranging from 3–6 hrs. Verteporfin was then added and was present for the last two hours of the incubation period. At the end of incubation period, the growth medium containing hypericin and verteporfin was removed and replaced with phosphate buffered saline (PBS) and then photosensitized with red light using a fiber-optic non-coherent light delivery system (SeNet Ltd, Israel) in combination with K700 broadband interference filter with central wavelengths at 700 nm and half-height bandwidth of ±40 nm (Rolyn Optics, Covina, Calif.) to selectively excite verteporfin but not hypericin (excitable at 546 and 590 nm). […] The fluence rate (mW/cm^2) was measured with a Model IL 1400A radiometer/photometer (International Light Inc., Newburyport, Mass.).
Two methods have been used to monitor cell viability: the MTT assay which measures reduction of MTT to formasan by mitochondria of viable cells and by the Hemacolor assay, a calorimetric microtiter assay that quantifies the amount of dye that binds to viable adherent cells (Keisari, 1992). […] MTT was added to the cells following light irradiation and the plates were incubated for three hours and then analyzed in an ELISA reader at 560 nm. […]
In order to examine whether the red/ox properties of hypericin in the dark can impact on the phototoxic properties of verteporfin (VP), retinal pigmented epithelial cells (ARPE-19) in monolayer cultures were loaded with hypericin by exposure to 5, 10 and 20 μM of this compound for three and six hrs. […] Following irradiation, drug-free fresh medium was introduced, the cells incubated at 37° C. in a 5% CO2 incubator for additional 24 hrs and cell viability then monitored using the MTT assay.

Data set [3] is described as follows: Biodistribution of hypericin in tissues of tumor-bearing mice (fluorescence). The class given is in vivo. The following applies: BALB/c mice bearing breast adenocarcinoma tumors, preliminary (FIG. 5). As for the experimental part: The present inventor aimed to overcome this obstacle by using pharmacokinetic considerations. Hypericin is a lipophilic agent with an alpha half life of approximately 1–2 hours in the circulation. […] It is therefore possible to generate conditions in which hypericin has cleared from the circulation and concentrated in the tissues where it can be useful in protecting from collateral photodynamic damage.

The test system of the next data set is EH endothelial cells. Description: Protection of EH endothelial cells from verteporfin-induced phototoxicity (viability). The following applies: for viability at 20 µM: Homo sapiens, Endothelial cell, light or radiation study. As for the experimental part: ARPE or EH cells were plated in 96 well flat bottom microplates 2×10^4 cells/well. The cells were allowed to attach to the plate surface and hypericin was added to the cultures in complete darkness (ambient light kept below <0.03 mW/cm^2 to prevent hypericin-mediated phototoxicity) for time intervals ranging from 3–6 hrs. Verteporfin was then added and was present for the last two hours of the incubation period. At the end of incubation period, the growth medium containing hypericin and verteporfin was removed and replaced with phosphate buffered saline (PBS) and then photosensitized with red light using a fiber-optic non-coherent light delivery system (SeNet Ltd, Israel) in combination with K700 broadband interference filter with central wavelengths at 700 nm and half-height bandwidth of ±40 nm (Rolyn Optics, Covina, Calif.) to selectively excite verteporfin but not hypericin (excitable at 546 and 590 nm). The cultures were then returned to standard growth medium, cultured for 24 hrs in a 37° C., 5% CO2 and cell viability then assayed by the MTT or Hemacolor assays. The fluence rate (mW/cm^2) was measured with a Model IL 1400A radiometer/photometer (International Light Inc., Newburyport, Mass.).
Two methods have been used to monitor cell viability: the MTT assay which measures reduction of MTT to formasan by mitochondria of viable cells and by the Hemacolor assay, a calorimetric microtiter assay that quantifies the amount of dye that binds to viable adherent cells (Keisari, 1992). The cells were plated in flat-bottomed 96 well plates in 200 μl medium containing the photosensitizer. MTT was added to the cells following light irradiation and the plates were incubated for three hours and then analyzed in an ELISA reader at 560 nm. Corrections were made for non-specific absorption of MTT subtracting background values generated in cell free blank wells containing medium and HY at each dose level and MTT.
as §1
EH cells were used for this purpose.

The conditions of data set [4]: in vivo, iv; cited from earlier work.
[5] abbreviates: verteporfin 0.25 μg/ml plus quencher 10 μg/ml.
Setting [6] is: verteporfin 0.25 μg/ml plus quencher 20 μg/ml.

On to `Cc1ccc2c(=O)c3c(O)cc(O)c4c5c(O)cc(O)c6c(=O)c7ccc(C)cc7c(c65)c(c2c1)c34` [DTHe, dimethyl tetrahydroxy helianthrone], for which the “competitive quenching of verteporfin-mediated phototoxicity relative to hypericin” value in the data set with ARPE cells (ARPE cells, 10 and 20 μg/ml) is given as “much less effective”. Moreover, the cell viability in the data set with ARPE cells (setting [5]) was determined as 7.5%; with ARPE cells (setting [6]) it was 6%.

Turning to `Cc1cc(O)c2c(=O)c3c(O)cc(O)c4c5c(O)cc(O)c6c(=O)c7c(O)cc(C)c8c1c2c(c34)c(c78)c65` [hypericin], the cell viability in the data set on ARPE cells (setting [5]) is 35%; in the data set with ARPE cells (setting [6]) it was 32%. In data set [1] (circulation), the “alpha half-life in the circulation” value is 1 to 2 h. Also, the elimination half-life in data set [1] (human, in vivo) is roughly 48 h. The “gamma elimination half life from tissues” value in data set [1] (in vivo) is recorded as “approximately 48 hrs”. Besides, the “retinal distribution of hypericin fluorescence” value was “confined to the choroidal blood vessels; also recorded: confined mainly to the vasculature” in data set [2] (15 minutes after 2 mg/kg i.v., rats (FIG. 6A)); “spreads to the entire retina; also recorded: extravasated to the surrounding tissue was less evident within the vasculature and spread through the choroid” in data set [2] (2 hrs after 2 mg/kg i.v., rats (FIG. 6B)); “present only in the retina and not in the blood vessels; also recorded: spread to the entire retina” in data set [2] (6 hrs after 2 mg/kg i.v., rats (FIG. 6C)). The “confinement to the choroidal vasculature” value in data set [2] (after i.v. administration to rats (discussion)) is recorded as “mainly confined to the choroidal vasculature for up to one hour”. Further, the “bioavailability to the retina” value in data set [2] (hypericin 2 mg/kg i.v. tail vein, rats) is given as “bioavailable to the retina”. Also, the “clearance from choroidal vessels and tissue accumulation” value in data set [2] (rat, in vivo, iv) is “beyond 2 hrs was cleared from the choroidal vessels and accumulated in the extravascular choroid and RPE”. Further, the viability at 20 µM came out at 60% in the data set on ARPE-19 cells (read-out: percent cell viability, verteporfin 0.25 μg/ml plus hypericin 20 μM, 0.75 J/cm^2 >650 nm (FIG. 2A)); 25% with ARPE-19 cells (read-out: percent cell viability, verteporfin 0.5 μg/ml plus hypericin 20 μM, 0.75 J/cm^2 >650 nm (FIG. 2A)); 73% in the data set on EH endothelial cells (read-out: EH cell viability, verteporfin 0.1 μg/ml plus hypericin 20 μM, 0.96 J/cm^2 (FIG. 3A)); 81% with EH endothelial cells (read-out: EH cell viability, verteporfin 0.25 μg/ml plus hypericin 20 μM, 0.96 J/cm^2 (FIG. 3A)); 49% with EH endothelial cells (read-out: EH cell viability, verteporfin 0.5 μg/ml plus hypericin 20 μM, 0.96 J/cm^2 (FIG. 3A)). Further, in the data set on ARPE-19 cells (verteporfin 2 μg/ml, hypericin loaded before photosensitization, RPE or endothelial cells, cell line not specified), the cell viability preserved result is given as “up to 46.8%”. Besides, the tissue biodistribution entry in data set [3] is “sequester in various tissues for many hours”. Besides, the “EH cell protection from verteporfin-induced phototoxicity” value with EH endothelial cells (higher doses of light irradiation, 1.73 J/cm^2 (FIG. 3B)) was “also maintained at higher doses of light irradiation, yet the absolute levels of protection declined”.

Turning to verteporfin, the “time remaining in the intravascular compartment” value in data set [4] is 30 min.

The values above are taken from patent US7122518B2, “Method for preventing or reducing collateral phototoxic damage to neighboring tissues during photodynamic therapy of a target tissue” (New York University, priority 2002, dated 2006).
